# Reference: US6420630B1, “Methods for tissue culturing and transforming elite inbreds of Zea mays L” (Stine Biotechnology, priority 1998, dated 2002)
# Experiments:
# [1] = test system: immature embryos of Stine inbred 963; assay: Type II callus initiation from cultured immature embryos (embryos responding); assay type: cell-based, Zea mays L.; conditions: sugar at 10 g/l in combination with 20 g/l sucrose, N6A medium
# Method: Plants of the elite corn inbred Stine 963 were grown under controlled conditions, either in a grow room or in a greenhouse. Plants were exposed throughout growth to a 16 h photoperiod with a daytime temperature of around 30° C. and a nighttime temperature of around 25° C. Plants were selfed and after approximately 10 days ears were harvested. At this time the immature embryos were on average between 1.0 and 2.0 mm in length. Usually the ears were then placed at 4° for two days prior to immature embryo excision. The response on standard […] media (Table 1) for inducing Type II callus was variable and appeared to be dependent on the physiological state of the donor plant. The frequency of Type II callus ranged from 0% up to 95%, with an average of around 40%. Immature embryos were excised with a view to using them as targets for Agrobacterium-mediated DNA delivery. For this work a reproducible and high frequency response is required and improvement in these aspects was therefore desirable. The protocol used for introduction of DNA mediated by Agrobacterium was based on that described by Hei and Komari (1997). The co-cultivation medium in this protocol (LSAS-Table 1) contains glucose, intended presumably as a carbon source for Agrobacterium. After close observation of immature embryos on LSAS medium it was thought worthwhile to check for the effects of glucose on culture initiation and subsequent development. 10 g/l of glucose was therefore added to […] medium. This medium was subsequently referred to as […] (Table 1). […] Various other sugars were tested in this regard (see Table 3) and some are capable of supporting an increased rate of Type II callus initiation (especially maltose, lactose, sorbitol and mannitol). None of those tested, however, were as efficient as glucose in stimulating Type II callus formation on […] medium. All sugars were tested at 10 g/l in combination with 20 g/l sucrose.
# [2] = test system: Agrobacterium; assay: Control of Agrobacterium growth on culture media after co-cultivation; assay type: cell-based, Agrobacterium tumefaciens; conditions: for control of Agrobacterium growth: first 19 day culture period after co-cultivation
# Excerpt: Agrobacterium strain LBA 4404 harboring “super binary” vectors as described in U.S. patent Hei and Komari (1997) was used in corn transformation experiments. […] The gus expression cassette contains an intron in the N-terminal region of the gus gene which prevents expression in bacteria, but upon expression in plant cells the intron is spliced out and Gus activity is achieved (Ohta et al., 1990; Ishida et al., 1996). Agrobacterium containing “super binary” vectors were stored in glycerol stocks using acidified glycerol. Glycerol was acidified by adding 15 drops of 1 M HCl to one liter of glycerol (Sigma G-9012). Final glycerol concentration of stocks was 15 to 20% and stocks were frozen at minus 86° C. When glycerol stocks were used as the source for transformation experiments, Agrobacterium was made ready for transformation experiments by removing a few flakes of frozen culture with a sterile loop, streaking it out on YP medium (5 g/l yeast extract, 10 g/l peptone, 5 g/l NaCl, and 15 g/l agar) containing 50 mg/l spectinomycin, and incubating it for one or two days at 28° C. When glycerol stocks were not used as the source, Agrobacterium maintained on YP plus spectinomycin at 4° C. was used to initiate new cultures of Agrobacterium that were grown as described above.
# Therefore, a lower level of cefotaxime was tested in the presence of silver nitrate to see if embryo response and subsequent clone recovery could be improved. […] The clones were then transferred to DN62B (Table 4) for growth and further selection prior to regeneration.
SMILES,Embryo Response [1] [%],also measured
O=C[C@H](O)[C@@H](O)[C@H](O[C@@H]1O[C@H](CO)[C@@H](O)[C@H](O)[C@H]1O)[C@H](O)CO [Cellobiose],<50,–
O=C(CO)[C@@H](O)[C@H](O)[C@H](O)CO [Fructose],<50,–
O=C[C@H](O)[C@@H](O)[C@@H](O)[C@H](O)CO [Galactose],<30,–
OC[C@H]1O[C@H](OCC2O[C@@H](O)[C@H](O)[C@@H](O)[C@@H]2O)[C@H](O)[C@@H](O)[C@H]1O (stereo partly shown) [Mellibiose],<50,–
OC[C@H]1O[C@H](OC[C@H]2O[C@H](O[C@]3(CO)O[C@H](CO)[C@@H](O)[C@@H]3O)[C@H](O)[C@@H](O)[C@@H]2O)[C@H](O)[C@@H](O)[C@H]1O [Raffinose],<50,–
OC[C@H]1O[C@H](O[C@H]2O[C@H](CO)[C@@H](O)[C@H](O)[C@H]2O)[C@H](O)[C@@H](O)[C@@H]1O [Trehalose],<50,–
O=C[C@H](O)[C@@H](O)[C@H](O)CO [Xylose],<50,–
CO/N=C(\C(=O)N[C@@H]1C(=O)N2C(C(=O)O)=C(COC(C)=O)CS[C@H]12)c1csc(N)n1 [cefotaxime],–,control of Agrobacterium growth ([2]; 10 mg/l cefotaxime in presence of silver nitrate): not; control of Agrobacterium growth ([2]; 50 mg/l cefotaxime in presence of silver nitrate): Adequate control of Agrobacterium growth
O=[N+]([O-])[O-].[Ag+] [silver nitrate],–,Agrobacterium growth ([2]; media containing silver nitrate): inhibited
